Experimental data published in PubChem BioAssay (NCI).
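Values below derive from 48-hour exposures of cells grown in 96-well plates, with endpoints linearly interpolated between the two concentrations bracketing the appropriate inhibition level. At the GI50, growth is halved. TGI marks complete inhibition of growth.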

Experiments:
Assay in all cases: NCI anticancer screen, dose series, 48 h
MDA-MB-231 breast = system: MDA-MB-231 breast
MCF7 breast = system: MCF7 breast
OVCAR-4 ovarian = system: OVCAR-4 ovarian
SW-620 colon = system: SW-620 colon
SN12C renal = system: SN12C renal
MDA-MB-435 = system: MDA-MB-435
NCI-H23 lung = system: NCI-H23 lung
HL-60(TB) leukemia = system: HL-60(TB) leukemia
SK-OV-3 ovarian = system: SK-OV-3 ovarian
UO-31 renal = system: UO-31 renal
HT29 colon = system: HT29 colon
EKVX NSCLC = system: EKVX NSCLC
A498 renal = system: A498 renal
SK-MEL-5 melanoma = system: SK-MEL-5 melanoma
CCRF-CEM leukemia = system: CCRF-CEM leukemia
HCC-2998 colon = system: HCC-2998 colon
BT-549 breast = system: BT-549 breast
SF-295 CNS = system: SF-295 CNS
NCI-H460 lung = system: NCI-H460 lung
KM12 colon = system: KM12 colon
OVCAR-5 ovarian = system: OVCAR-5 ovarian
MALME-3M melanoma = system: MALME-3M melanoma
786-0 renal = system: 786-0 renal
SF-268 CNS = system: SF-268 CNS
T-47D breast = system: T-47D breast
HOP-62 NSCLC = system: HOP-62 NSCLC
NCI/ADR-RES ovarian = system: NCI/ADR-RES ovarian
SR leukemia = system: SR leukemia
RXF 393 renal = system: RXF 393 renal
SK-MEL-28 melanoma = system: SK-MEL-28 melanoma
PC-3 prostate = system: PC-3 prostate
HS 578T breast = system: HS 578T breast
HCT-15 colon = system: HCT-15 colon
MOLT-4 leukemia = system: MOLT-4 leukemia
TK-10 renal = system: TK-10 renal
NCI-H522 lung = system: NCI-H522 lung
K-562 leukemia = system: K-562 leukemia
M14 melanoma = system: M14 melanoma
OVCAR-3 ovarian = system: OVCAR-3 ovarian
DU-145 prostate = system: DU-145 prostate
CAKI-1 renal = system: CAKI-1 renal
SF-539 CNS = system: SF-539 CNS
HOP-92 NSCLC = system: HOP-92 NSCLC
LOX IMVI melanoma = system: LOX IMVI melanoma
HCT-116 colon = system: HCT-116 colon
IGROV1 ovarian = system: IGROV1 ovarian
A549 NSCLC = system: A549 NSCLC
RPMI-8226 leukemia = system: RPMI-8226 leukemia
SNB-75 CNS = system: SNB-75 CNS
UACC-257 melanoma = system: UACC-257 melanoma
SK-MEL-2 melanoma = system: SK-MEL-2 melanoma
UACC-62 melanoma = system: UACC-62 melanoma
COLO 205 colon = system: COLO 205 colon
NCI-H226 lung = system: NCI-H226 lung
ACHN renal = system: ACHN renal
SNB-19 CNS = system: SNB-19 CNS
U251 CNS = system: U251 CNS

ClCc1ccc(-c2ccc(Cn3cnc4c(Cl)nc(Cl)nc43)cc2)cc1
GI50 (MDA-MB-231 breast): 2.76 µM
TGI (MDA-MB-231 breast): 7.14 µM
GI50 (MCF7 breast): 1.69 µM
TGI (MCF7 breast): 3.51 µM
GI50 (OVCAR-4 ovarian): 3.39 µM
TGI (OVCAR-4 ovarian): 13.3 µM
GI50 (SW-620 colon): 1.83 µM
TGI (SW-620 colon): 3.41 µM
GI50 (SN12C renal): 2.72 µM
TGI (SN12C renal): 8.93 µM
GI50 (MDA-MB-435): 2.74 µM
TGI (MDA-MB-435): 9.37 µM
GI50 (NCI-H23 lung): 3.18 µM
TGI (NCI-H23 lung): 14.4 µM
GI50 (HL-60(TB) leukemia): 3.25 µM
TGI (HL-60(TB) leukemia): > 100 µM
GI50 (SK-OV-3 ovarian): 10.6 µM
TGI (SK-OV-3 ovarian): 22.6 µM
GI50 (UO-31 renal): 3.32 µM
TGI (UO-31 renal): 8.18 µM
GI50 (HT29 colon): 1.72 µM
TGI (HT29 colon): 3.31 µM
GI50 (EKVX NSCLC): 3.32 µM
TGI (EKVX NSCLC): 15.5 µM
GI50 (A498 renal): 2.33 µM
TGI (A498 renal): 11.4 µM
GI50 (SK-MEL-5 melanoma): 2.75 µM
TGI (SK-MEL-5 melanoma): 12.3 µM
GI50 (CCRF-CEM leukemia): 2.36 µM
TGI (CCRF-CEM leukemia): 5.9 µM
GI50 (HCC-2998 colon): 1.41 µM
TGI (HCC-2998 colon): 2.9 µM
GI50 (BT-549 breast): 3.71 µM
TGI (BT-549 breast): 15.5 µM
GI50 (SF-295 CNS): 2.69 µM
TGI (SF-295 CNS): 6.5 µM
GI50 (NCI-H460 lung): 3 µM
TGI (NCI-H460 lung): 10.6 µM
GI50 (KM12 colon): 2.12 µM
TGI (KM12 colon): 4.4 µM
GI50 (OVCAR-5 ovarian): 17.8 µM
TGI (OVCAR-5 ovarian): 32.4 µM
GI50 (MALME-3M melanoma): 7.06 µM
TGI (MALME-3M melanoma): 23.8 µM
GI50 (786-0 renal): 6.43 µM
TGI (786-0 renal): 19.6 µM
GI50 (SF-268 CNS): 2.01 µM
TGI (SF-268 CNS): 4.77 µM
GI50 (T-47D breast): 1.9 µM
TGI (T-47D breast): 4.64 µM
GI50 (HOP-62 NSCLC): 1.92 µM
TGI (HOP-62 NSCLC): 4 µM
GI50 (NCI/ADR-RES ovarian): 2.5 µM
TGI (NCI/ADR-RES ovarian): 7.55 µM
GI50 (SR leukemia): 1.9 µM
TGI (SR leukemia): 6.43 µM
GI50 (RXF 393 renal): 1.67 µM
TGI (RXF 393 renal): 3.38 µM
GI50 (SK-MEL-28 melanoma): 1.65 µM
TGI (SK-MEL-28 melanoma): 3.1 µM
GI50 (PC-3 prostate): 2.21 µM
TGI (PC-3 prostate): 5.28 µM
GI50 (HS 578T breast): 3.14 µM
TGI (HS 578T breast): 11.1 µM
GI50 (HCT-15 colon): 1.67 µM
TGI (HCT-15 colon): 3.35 µM
GI50 (MOLT-4 leukemia): 1.95 µM
TGI (MOLT-4 leukemia): 6.97 µM
GI50 (TK-10 renal): 2.11 µM
TGI (TK-10 renal): 4.42 µM
GI50 (NCI-H522 lung): 2.33 µM
TGI (NCI-H522 lung): 6.79 µM
GI50 (K-562 leukemia): 10.4 µM
TGI (K-562 leukemia): > 100 µM
GI50 (M14 melanoma): 13.4 µM
TGI (M14 melanoma): 32.3 µM
GI50 (OVCAR-3 ovarian): 1.65 µM
TGI (OVCAR-3 ovarian): 3.05 µM
GI50 (DU-145 prostate): 1.58 µM
TGI (DU-145 prostate): 2.94 µM
GI50 (CAKI-1 renal): 1.84 µM
TGI (CAKI-1 renal): 4.32 µM
GI50 (SF-539 CNS): 2.14 µM
TGI (SF-539 CNS): 4.99 µM
GI50 (HOP-92 NSCLC): 1.98 µM
TGI (HOP-92 NSCLC): 5.56 µM
GI50 (LOX IMVI melanoma): 1.64 µM
TGI (LOX IMVI melanoma): 3.2 µM
GI50 (HCT-116 colon): 1.58 µM
TGI (HCT-116 colon): 2.92 µM
GI50 (IGROV1 ovarian): 0.885 µM
TGI (IGROV1 ovarian): 2.28 µM
GI50 (A549 NSCLC): 1.73 µM
TGI (A549 NSCLC): 3.59 µM
GI50 (RPMI-8226 leukemia): 2.33 µM
TGI (RPMI-8226 leukemia): 5.77 µM
GI50 (SNB-75 CNS): 2.63 µM
TGI (SNB-75 CNS): 7.81 µM
GI50 (UACC-257 melanoma): 1.5 µM
TGI (UACC-257 melanoma): 3.64 µM
GI50 (SK-MEL-2 melanoma): 1.88 µM
TGI (SK-MEL-2 melanoma): 3.42 µM
GI50 (UACC-62 melanoma): 2.49 µM
TGI (UACC-62 melanoma): 6.35 µM
GI50 (COLO 205 colon): 2.72 µM
TGI (COLO 205 colon): 8.53 µM
GI50 (NCI-H226 lung): 8.85 µM
TGI (NCI-H226 lung): 28.5 µM
GI50 (ACHN renal): 2.05 µM
TGI (ACHN renal): 4.25 µM
GI50 (SNB-19 CNS): 1.95 µM
TGI (SNB-19 CNS): 4.15 µM
GI50 (U251 CNS): 1.89 µM
TGI (U251 CNS): 3.64 µM
